# From PMC3025922 (BMC Biology, 2010)
# Where two headings read alike, the source gives them in different places.
# Tested on: nuclear p27 in LNCaP-S14 cells
# Format: cell-based, human
# [1] = primary screening, nuclear p27 in LNCaP-S14 cells
# [2] = primary screening, S = strong, M = medium, W = weak by Z score
structure (smiles),measurement,setting,value
CC(C)(C)c1ccc(C(=O)N2CCC(N(C3CC3)S(=O)(=O)c3cccc(C(F)(F)F)c3)CC2)cc1 [521J08],Z score (aver),[1],2.93
same,Clasf,[2],W (weak (Z score 2-3)
CCCN1CCC(N(C(=O)c2ccc(NC(=O)C(c3ccccc3)c3ccccc3)cc2)C2CC2)CC1 [521L12],Z score (aver),[1],4.02
same,Clasf,[2],M (medium (Z score 3-5))
Cc1[nH]cnc1-c1ccc(C(F)(F)F)cc1 [522D05],Z score (aver),[1],3.87
same,Clasf,[2],M (medium (Z score 3-5))
COc1ccccc1CN(C(=O)Nc1ccc(F)cc1F)c1ccc2[nH]c(C(C)(C)C)cc2c1 [522J16],Z score (aver),[1],4.05
same,Clasf,[2],M (medium (Z score 3-5))
CCC(=O)N(Cc1cccc(Cl)c1)c1ccc2[nH]c(C(C)(C)C)cc2c1 [522J18],Z score (aver),[1],6.59
same,Clasf,[2],S (strong (Z score > 5))
COc1ccccc1NC(=O)N(Cc1cccc(Cl)c1)c1ccc2[nH]c(C(C)(C)C)cc2c1 [522L04],Z score (aver),[1],4.02
same,Clasf,[2],M (medium (Z score 3-5))
O=C(C(c1ccccc1)c1ccccc1)N(Cc1ccc(Cl)cc1)Cc1ccc2cc[nH]c2c1 [522N04],Z score (aver),[1],2.29
same,Clasf,[2],W (weak (Z score 2-3)
COc1ccc(S(=O)(=O)N(Cc2ccc(Cl)cc2)Cc2ccc3cc[nH]c3c2)cc1 [522N08],Z score (aver),[1],3.74
same,Clasf,[2],M (medium (Z score 3-5))
COc1ccc(S(=O)(=O)Nc2cccc3cc(C(=O)NCc4ccc(Cl)cc4)[nH]c23)cc1 [522N16],Z score (aver),[1],5.29
same,Clasf,[2],S (strong (Z score > 5))
CCN(CC)c1ccc(NCN2C(=O)c3ccccc3C2=O)c(C)c1 [541E03],Z score (aver),[1],2.75
same,Clasf,[2],W (weak (Z score 2-3)
CCCCc1ccc(NC(C)=O)c(C)c1 [541G02],Clasf,,S (key: S: strong (Z score > 5); M: medium (Z score 3-5); W: weak (Z score 2-3)
same,Z score (aver),,7.67
O=C(c1ccc(Cl)nc1)N(Cc1ccc(-c2cccs2)s1)C1CC1 [541H08],Z score (aver),[1],2.92
same,Clasf,[2],W (weak (Z score 2-3)
CC(=O)Nc1ccc(S(=O)(=O)N(Cc2ccc3c(c2)CCO3)C2CC2)cc1 [541J07],Z score (aver),[1],3.47
same,Clasf,[2],M (medium (Z score 3-5))
CCN(C(=S)Nc1cccc(C(F)(F)F)c1)c1ccccc1 [541K01],Z score (aver),[1],4.12
same,Clasf,[2],M (medium (Z score 3-5))
S=C(NCc1ccccc1)Nc1ccc(Br)cc1 [541M20],Z score (aver),[1],4.62
same,Clasf,[2],M (medium (Z score 3-5))
CCCCCCSc1nnc(N)s1 [541O08],Z score (aver),[1],8.05
same,Clasf,[2],S (strong (Z score > 5))
O=C1C(Cl)=C(N2CCC(C(=O)N3CCOCC3)CC2)C(=O)c2ccccc21 [567A03],Z score (aver),[1],6.25
same,Clasf,[2],S (strong (Z score > 5))
COc1cc(OC)c(CN2CCC(NC(=O)c3ccc(-n4nc(C(C)(C)C)cc4C(C)(C)C)cc3)C2)c(OC)c1 (stereo not drawn) [567D12],Z score (aver),[1],8.89
same,Clasf,[2],S (strong (Z score > 5))
O=C(NC1=C(Cl)C(=O)c2ccccc2C1=O)OC1CCCCCCC1 [567K05],Z score (aver),[1],2.74
same,Clasf,[2],W (weak (Z score 2-3)
O=C(OCn1ncc(Cl)c(Cl)c1=O)c1cccc(C(F)(F)F)c1 [567M11],Z score (aver),[1],4.23
same,Clasf,[2],M (medium (Z score 3-5))
O=C(OCn1ncc(Cl)c(Cl)c1=O)c1ccc(C(F)(F)F)cc1 [567M13],Clasf,[2],S (strong (Z score > 5))
O=C(NCCCn1ccnc1)OCc1ccc(C#Cc2ccccc2)s1 [567M14],Z score (aver),[1],2.83
same,Clasf,[2],W (weak (Z score 2-3)
COc1ccc2[nH]cc(CCNC(=O)OCC3CC4CCC3C4)c2c1 (stereo not drawn) [567M20],Z score (aver),[1],4.13
same,Clasf,[2],M (medium (Z score 3-5))
O=C1c2ccccc2C(=O)N1Oc1ccc([N+](=O)[O-])c([N+](=O)[O-])c1 [669F07],Z score (aver),[1],3.84
same,Clasf,[2],M (medium (Z score 3-5))
Cc1ccc(C(=O)C2C(c3ccccc3I)C(C#N)(C#N)C3c4ccccc4C=CN23)cc1 (stereo not drawn) [669K08],Z score (aver),[1],2.72
same,Clasf,[2],W (weak (Z score 2-3)
CC(=O)C1C(c2cccc(I)c2)C(C#N)(C#N)C2C=Cc3ccccc3N12 (stereo not drawn) [669K10],Z score (aver),[1],3.55
same,Clasf,[2],M (medium (Z score 3-5))
N#CC1(C#N)C(c2cccc(I)c2)C(C(N)=O)N2C=Cc3ccccc3C21 (stereo not drawn) [669M10],Z score (aver),[1],6.90
same,Clasf,[2],S (strong (Z score > 5))
N#CC1(C#N)C(c2ccccc2I)C(C(=O)C23CC4CC(CC(C4)C2)C3)N2c3ccccc3C=CC21 (stereo not drawn) [669O10],Z score (aver),[1],6.23
same,Clasf,[2],S (strong (Z score > 5))
Cc1ccc(C)n1-c1ccccc1CNS(=O)(=O)c1ccc(Cl)cc1 [669P04],Z score (aver),[1],5.53
same,Clasf,[2],S (strong (Z score > 5))
COc1ccc(C2=NN3C(C2)c2cc(Cl)ccc2OC32CCCC2)cc1 (stereo not drawn) [1157E14],Z score (aver),[1],4.67
same,Clasf,[2],M (medium (Z score 3-5))
N#Cc1cc2c(nc1SCC(=O)Nc1ccccc1F)CCCCC2 [1158J04],Z score (aver),[1],2.92
same,Clasf,[2],W (weak (Z score 2-3)
COc1ccccc1N1CCN(C(=O)CSc2nc3ccccc3c(=O)n2CCC(=O)NC2CCCCC2)CC1 [1158L12],Z score (aver),[1],2.46
same,Clasf,[2],W (weak (Z score 2-3)
CCOC(=O)C1=C(C)N=c2sc(=Cc3ccc(N(CC)CC)o3)c(=O)n2C1c1ccccc1OC (stereo not drawn) [1158M07],Z score (aver),[1],11.51
same,Clasf,[2],S (strong (Z score > 5))
COc1ccccc1C1Oc2ccc(Cl)cc2C2CC(c3ccc(Cl)cc3)=NN21 (stereo not drawn) [1158M11],Z score (aver),[1],4.34
same,Clasf,[2],M (medium (Z score 3-5))
C=CCN1C(=O)CC(C(=O)Nc2ccc(OC)cc2)SC1=Nc1ccc(Cl)cc1 (stereo not drawn) [1158M12],Z score (aver),[1],2.69
same,Clasf,[2],W (weak (Z score 2-3)
CCOC(=O)C1=C(C)N=c2sc(=Cc3ccc(N4CCOCC4)o3)c(=O)n2C1c1ccc2c(c1)OCO2 (stereo not drawn) [1158O07],Z score (aver),[1],8.87
same,Clasf,[2],S (strong (Z score > 5))
CC(=O)C1=C(C)NC(SCC(=O)c2ccc(Cl)cc2Cl)=C(C#N)C1c1sccc1C (stereo not drawn) [1159B21],Z score (aver),[1],2.34
same,Clasf,[2],W (weak (Z score 2-3)
O=[N+]([O-])C(=C(Cl)Sc1ccccc1)C(Cl)=C(Cl)Cl [1159C10],Z score (aver),[1],2.72
same,Clasf,[2],W (weak (Z score 2-3)
COc1ccc2c(c1)OC1(C=C2)N(C)c2ccccc2C1(C)C (stereo not drawn) [1159E12],Z score (aver),[1],12.29
same,Clasf,[2],S (strong (Z score > 5))
COC(=O)C1=C(N)n2c(sc(=Cc3ccc(Cl)cc3)c2=O)=C(C(=O)OC)C1c1ccc(Cl)cc1 (stereo not drawn) [1159F17],Z score (aver),[1],2.15
same,Clasf,[2],W (weak (Z score 2-3)
N#Cc1c(N)nc(SCC(=O)NCc2ccccc2)c(C#N)c1-c1cccs1 [1159G21],Z score (aver),[1],3.48
same,Clasf,[2],M (medium (Z score 3-5))
Cc1ccc(-c2cn3c([n+]2-c2ccc(C)cc2)CCCCC3)cc1 [1159I14],Z score (aver),[1],2.49
same,Clasf,[2],W (weak (Z score 2-3)
COc1ccc(Br)cc1C1CC(=O)Nc2c1ccc1ccccc21 (stereo not drawn) [1159L15],Z score (aver),[1],2.32
same,Clasf,[2],W (weak (Z score 2-3)
COc1ccc(-c2nc3c4ccccc4c4ccccc4c3[nH]2)c(OC)c1 [1160C13],Z score (aver),[1],2.90
same,Clasf,[2],W (weak (Z score 2-3)
O=C1C2C3c4ccccc4C(CO)(c4ccccc43)C2C(=O)N1c1ccc(Br)cc1 (stereo not drawn) [1160E22],Z score (aver),[1],2.44
same,Clasf,[2],W (weak (Z score 2-3)
COc1cc(C(=O)N2c3ccc(C)cc3-c3c(ssc3=S)C2(C)C)cc(OC)c1OC [1160F11],Z score (aver),[1],3.09
same,Clasf,[2],M (medium (Z score 3-5))
CCNC(=O)C=C1NC(C)(C)Cc2c1ccc1ccccc21 [1160G14],Z score (aver),[1],2.31
same,Clasf,[2],W (weak (Z score 2-3)
Sc1nnc2c3ccccc3n(CCc3ccccc3)c2n1 [1160H09],Z score (aver),[1],2.51
same,Clasf,[2],W (weak (Z score 2-3)
CN(C)c1ccc(C=CC=CC23NC(=O)CN2c2ccccc2C3(C)C)cc1 (stereo not drawn) [1160J08],Z score (aver),[1],4.94
same,Clasf,[2],M (medium (Z score 3-5))
N#CC1=C(N)C(C#N)(C#N)C(c2ccc(Br)cc2)C2CN(Cc3ccccc3)CC=C12 (stereo not drawn) [1160K18],Z score (aver),[1],2.90
same,Clasf,[2],W (weak (Z score 2-3)
COc1ccccc1C(=O)N1c2ccccc2Sc2ccccc21 [1160M09],Z score (aver),[1],2.71
same,Clasf,[2],W (weak (Z score 2-3)
Cc1ccc(C)c2c1-c1ccccc1S(=O)(=O)N2S(=O)(=O)c1ccccc1 [1160M11],Z score (aver),[1],2.11
same,Clasf,[2],W (weak (Z score 2-3)
Cc1nc(NCCc2c[nH]c3ccccc23)cc(-c2ccc(F)cc2)n1 [1306E02],Z score (aver),[1],3.02
same,Clasf,[2],M (medium (Z score 3-5))
CCN(CC)c1cc(-c2ccc(F)cc2)nc(-c2ccncc2)n1 [1306I06],Z score (aver),[1],3.11
same,Clasf,[2],M (medium (Z score 3-5))
Fc1ccc(-c2cc(NCc3ccc(Cl)cc3)nc(-c3ccncc3)n2)cc1 [1306I08],Z score (aver),[1],3.44
same,Clasf,[2],M (medium (Z score 3-5))
COC(=O)c1c(-c2c(Cl)cccc2Cl)noc1C=CN(C)C [1306I21],Z score (aver),[1],4.49
same,Clasf,[2],M (medium (Z score 3-5))
Fc1ccc(-c2cc(NC3CC3)nc(-c3ccncc3)n2)cc1 [1306K08],Z score (aver),[1],3.56
same,Clasf,[2],M (medium (Z score 3-5))
CCCN1CCC(N(C(=O)c2cccc(C(F)(F)F)c2)c2ccc3[nH]c(C(C)(C)C)cc3c2)CC1 [1306L20],Z score (aver),[1],6.78
same,Clasf,[2],S (strong (Z score > 5))
CCC1(O)C(=O)OCc2c1cc1n(c2=O)Cc2cc3c(O)cccc3nc2-1 (stereo not drawn) [1361B06],Z score (aver),[1],7.99
same,Clasf,[2],S (strong (Z score > 5))
C=CCNC1=C2CC(C)CC(OC)C(O)C(C)C=C(C)C(OC(N)=O)C(OC)C=CC=C(C)C(=O)NC(=CC1=O)C2=O (stereo not drawn) [1361H16],Z score (aver),[1],3.92
same,Clasf,[2],M (medium (Z score 3-5))
COC1=CC(C)=CC(C)C(O)C(C)CC(C)=CC=CC(OC)C(C(C)C(O)C(C)C2CC(O)C(C)C(C(C)C)O2)OC1=O (stereo not drawn) [1361J12],Z score (aver),[1],4.65
same,Clasf,[2],M (medium (Z score 3-5))
CC=C(C)C(=O)OC1C(C)=C2C(C1OC(=O)CCCCCCC)C(C)(OC(C)=O)CC(OC(=O)CCC)C1(O)C2OC(=O)C1(C)O (stereo not drawn) [1361L03],Z score (aver),[1],8.27
same,Clasf,[2],S (strong (Z score > 5))
